Reference: PubChem BioAssay AID504479 (NMMLSC, 2011)
The source made the active and inactive calls.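 Rule for the calls: active = GFP ratio vs DMSO below 0.65 in a strain, using the primary screen cutoff set for that strain's protein target; inactive = the rest.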

Tests used:
Assay in all cases: TORC1 pathway position of GFP reporter effects – S. cerevisiae, TORC1 bypass vs wild-type strains, mechanism study for yeast TOR pathway modulator project (AID 504479)
Settings in all cases: fluorescence ratio vs DMSO, at 10 µM
[1] = tested on: YCL025C
[2] = tested on: YBR084C-A
[3] = tested on: YKL103C
[4] = tested on: YNL142W
[5] = tested on: BY4741
[6] = tested on: YCR005C
[7] = AGP1-GFP in TORC1 bypass strain, stronger effect = higher value
[8] = RPL19A-GFP in TORC1 bypass strain, stronger effect = lower value
[9] = LAP4-GFP in TORC1 bypass strain, stronger effect = higher value
[10] = MEP2-GFP in TORC1 bypass strain, stronger effect = higher value
[11] = CIT2-GFP in TORC1 bypass strain, stronger effect = higher value

## c1ccc(-c2cccc(-c3ccccn3)n2)nc1
[1]; [7]
  GFP ratio vs DMSO: 0.927
[1]
  GFP ratio vs DMSO: 0.984 (inactive)
[2]; [8]
  GFP ratio vs DMSO: 0.963
[2]
  GFP ratio vs DMSO: 0.926 (inactive)
[3]; [9]
  GFP ratio vs DMSO: 1.2
[3]
  GFP ratio vs DMSO: 1.5
[4]; [10]
  GFP ratio vs DMSO: 1
[4]
  GFP ratio vs DMSO: 0.847 (inactive)
[5]
  GFP ratio vs DMSO: 0.833 (inactive)
[6]; [11]
  GFP ratio vs DMSO: 0.688
[6]
  GFP ratio vs DMSO: 0.683 (inactive)

## Cc1ccc(/C=C2/C(=O)ON=C2c2ccccc2)o1
[1]; [7]
  GFP ratio vs DMSO: 0.642
[1]
  GFP ratio vs DMSO: 0.87 (inactive)
[2]; [8]
  GFP ratio vs DMSO: 0.962
[2]
  GFP ratio vs DMSO: 1 (inactive)
[3]; [9]
  GFP ratio vs DMSO: 1.15
[3]
  GFP ratio vs DMSO: 1.99
[4]; [10]
  GFP ratio vs DMSO: 1.21
[4]
  GFP ratio vs DMSO: 1.23 (inactive)
[5]
  GFP ratio vs DMSO: 0.941 (inactive)
[6]; [11]
  GFP ratio vs DMSO: 0.898
[6]
  GFP ratio vs DMSO: 1.23 (inactive)

## CC(C)(C)n1nc(-c2ccc(Cl)cc2)c2c(N)ncnc21
[1]; [7]
  GFP ratio vs DMSO: 0.927
[1]
  GFP ratio vs DMSO: 0.943 (inactive)
[2]; [8]
  GFP ratio vs DMSO: 0.612
[2]
  GFP ratio vs DMSO: 0.547
[3]; [9]
  GFP ratio vs DMSO: 1.2
[3]
  GFP ratio vs DMSO: 1.48 (inactive)
[4]; [10]
  GFP ratio vs DMSO: 0.887
[4]
  GFP ratio vs DMSO: 1.04 (inactive)
[5]
  GFP ratio vs DMSO: 0.794 (inactive)
[6]; [11]
  GFP ratio vs DMSO: 0.547
[6]
  GFP ratio vs DMSO: 0.359 (inactive)

## CCc1ccc(OCC(=O)NNC(=S)NC(=O)C2CC2)c(Br)c1
[1]; [7]
  GFP ratio vs DMSO: 0.819
[1]
  GFP ratio vs DMSO: 1.1 (inactive)
[2]; [8]
  GFP ratio vs DMSO: 1.03
[2]
  GFP ratio vs DMSO: 1.15 (inactive)
[3]; [9]
  GFP ratio vs DMSO: 1.3
[3]
  GFP ratio vs DMSO: 2.76
[4]; [10]
  GFP ratio vs DMSO: 1.13
[4]
  GFP ratio vs DMSO: 1.23 (inactive)
[5]
  GFP ratio vs DMSO: 1.41 (inactive)
[6]; [11]
  GFP ratio vs DMSO: 0.796
[6]
  GFP ratio vs DMSO: 0.882 (inactive)

## CSC1=NS(=O)(=O)c2c(C)nn(C)c2S1
[1]; [7]
  GFP ratio vs DMSO: 0.961
[1]
  GFP ratio vs DMSO: 1.01 (inactive)
[2]; [8]
  GFP ratio vs DMSO: 0.9
[2]
  GFP ratio vs DMSO: 0.887 (inactive)
[3]; [9]
  GFP ratio vs DMSO: 1.06
[3]
  GFP ratio vs DMSO: 1.36 (inactive)
[4]; [10]
  GFP ratio vs DMSO: 0.862
[4]
  GFP ratio vs DMSO: 0.972 (inactive)
[5]
  GFP ratio vs DMSO: 0.833 (inactive)
[6]; [11]
  GFP ratio vs DMSO: 0.826
[6]
  GFP ratio vs DMSO: 0.78 (inactive)

## CC(=O)SC(C[N+](=O)[O-])c1cn(C(C)=O)c2ccccc12 (centres undefined)
[1]; [7]
  GFP ratio vs DMSO: 0.739
[1]
  GFP ratio vs DMSO: 0.805 (inactive)
[2]; [8]
  GFP ratio vs DMSO: 1.04
[2]
  GFP ratio vs DMSO: 1.18 (inactive)
[3]; [9]
  GFP ratio vs DMSO: 1.4
[3]
  GFP ratio vs DMSO: 1.8
[4]; [10]
  GFP ratio vs DMSO: 0.918
[4]
  GFP ratio vs DMSO: 0.743 (inactive)
[5]
  GFP ratio vs DMSO: 0.941 (inactive)
[6]; [11]
  GFP ratio vs DMSO: 0.839
[6]
  GFP ratio vs DMSO: 0.9 (inactive)

## O=C(Oc1ccnc2cc(Cl)ccc12)N1CCCCCC1
[1]; [7]
  GFP ratio vs DMSO: 1.12
[1]
  GFP ratio vs DMSO: 1.78
[2]; [8]
  GFP ratio vs DMSO: 0.82
[2]
  GFP ratio vs DMSO: 1.19 (inactive)
[3]; [9]
  GFP ratio vs DMSO: 0.997
[3]
  GFP ratio vs DMSO: 1.15 (inactive)
[4]; [10]
  GFP ratio vs DMSO: 0.897
[4]
  GFP ratio vs DMSO: 1.96
[5]
  GFP ratio vs DMSO: 1 (inactive)
[6]; [11]
  GFP ratio vs DMSO: 0.708
[6]
  GFP ratio vs DMSO: 0.635 (inactive)

## O=C(OCn1ncc(Br)c(Br)c1=O)c1ccc(F)cc1
[1]; [7]
  GFP ratio vs DMSO: 0.766
[1]
  GFP ratio vs DMSO: 1.02 (inactive)
[2]; [8]
  GFP ratio vs DMSO: 1.06
[2]
  GFP ratio vs DMSO: 1.03 (inactive)
[3]; [9]
  GFP ratio vs DMSO: 1.67
[3]
  GFP ratio vs DMSO: 2.44
[4]; [10]
  GFP ratio vs DMSO: 0.918
[4]
  GFP ratio vs DMSO: 1.03 (inactive)
[5]
  GFP ratio vs DMSO: 0.853 (inactive)
[6]; [11]
  GFP ratio vs DMSO: 0.803
[6]
  GFP ratio vs DMSO: 1.06 (inactive)

## CC1=NN(c2ccccc2)C(=O)C1C(c1ccccc1[N+](=O)[O-])C(C#N)C#N (centres undefined)
[1]; [7]
  GFP ratio vs DMSO: 0.682
[1]
  GFP ratio vs DMSO: 0.947 (inactive)
[2]; [8]
  GFP ratio vs DMSO: 1.04
[2]
  GFP ratio vs DMSO: 1.09 (inactive)
[3]; [9]
  GFP ratio vs DMSO: 1.44
[3]
  GFP ratio vs DMSO: 2.26
[4]; [10]
  GFP ratio vs DMSO: 0.948
[4]
  GFP ratio vs DMSO: 1.03 (inactive)
[5]
  GFP ratio vs DMSO: 0.941 (inactive)
[6]; [11]
  GFP ratio vs DMSO: 1.15
[6]
  GFP ratio vs DMSO: 1.13 (inactive)
